Experimental data published in PubChem BioAssay (NCI).
Where “and” joins values, the source holds several entries; their conditions need not be identical. Equal values may be shown once.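 Cells were grown in 96-well plates and exposed to each compound for 48 hours at five concentrations; endpoints were interpolated linearly between bracketing concentrations, or set to the highest concentration if not reached. Abbreviation: GI50, concentration required for 50% inhibition of growth. TGI marks complete inhibition of growth.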

Assays:
Assay in all cases: NCI anticancer screen, dose series, 48 h
UACC-62 melanoma = system: UACC-62 melanoma
EKVX NSCLC = system: EKVX NSCLC
SK-MEL-5 melanoma = system: SK-MEL-5 melanoma
SF-539 CNS = system: SF-539 CNS
PC-3 prostate = system: PC-3 prostate
LOX IMVI melanoma = system: LOX IMVI melanoma
CAKI-1 renal = system: CAKI-1 renal
UACC-257 melanoma = system: UACC-257 melanoma
A498 renal = system: A498 renal
IGROV1 ovarian = system: IGROV1 ovarian

| SMILES | TGI (UACC-62 melanoma) | TGI (EKVX NSCLC) | TGI (SK-MEL-5 melanoma) | TGI (SF-539 CNS) | TGI (PC-3 prostate) | TGI (LOX IMVI melanoma) | TGI (CAKI-1 renal) | TGI (UACC-257 melanoma) | TGI (A498 renal) | TGI (IGROV1 ovarian) | GI50 (UACC-62 melanoma) [µM] | GI50 (EKVX NSCLC) | GI50 (SK-MEL-5 melanoma) | GI50 (SF-539 CNS) | GI50 (PC-3 prostate) [µM] | GI50 (LOX IMVI melanoma) [µM] | GI50 (CAKI-1 renal) [µM] | GI50 (IGROV1 ovarian) [µM] | GI50 (UACC-257 melanoma) [µM] | GI50 (A498 renal) [µM] |
| --- | --- | --- | --- | --- | --- | --- | --- | --- | --- | --- | --- | --- | --- | --- | --- | --- | --- | --- | --- | --- |
| CC1CC(O)C(=O)C(O[C@@H]2C[C@@H]3CC[C@@H]4[C@H](CC[C@]5(C)C(C6=CC(=O)OC6)CC[C@]45O)[C@@]3(C=O)C[C@H]2O)O1 (some centres undefined) | 0.178 µM | 0.0542 µM | 0.0174 µM | 0.0586 µM | < 0.0424 µM | 0.0681 µM | 0.0597 µM | 0.418 µM | 0.232 µM |  |  |  |  |  |  |  |  |  |  |  |
| COc1ccc(C(=O)c2cc(OC)c(OC)c(OC)c2)cc1OC | > 100 µM | > 100 µM | > 100 µM | 5.14 µM | > 100 µM | > 100 µM |  | > 100 µM |  | > 100 µM |  |  |  |  |  |  |  |  |  |  |
| Cc1ccc(OCCOCCOCCOCCOc2ccc(C)n(O)c2=S)c(=S)n1O | 40.5 µM | > 100 µM | 11.3 µM | > 100 µM | > 100 µM | > 69.6 µM | > 100 µM | > 29.5 µM | 10.9 µM | 54.3 µM | 0.115 | 0.0213 µM | 0.0438 µM | 0.317 µM | 0.0155 | 0.0481 | < 0.0146 | < 0.01 | 0.0192 | 0.323 |
| COc1ccc(/C(C)=C(\c2ccc(OCCN3CCCCCC3)cc2)c2ccc(OC(=O)C3CCCCC3)cc2)cc1 | 2.85 µM | 5.48 µM | 3 µM | 2.74 µM | 2.38 µM | 0.788 µM | 2.61 µM | 2.07 µM | 3.45 µM | 3.88 µM | 0.892 | 1.39 µM | 1.08 µM | 0.833 µM | 0.541 | 0.319 | 0.705 | 1.21 | 0.575 | 1.35 |
| CO[C@H]1Nc2c(ccc(C)c2O)C(=O)N2C=C(/C=C/C(N)=O)C[C@@H]12 | 0.036 µM | 1.03 µM | 0.0308 µM | 0.0384 µM | 0.656 µM | 1.29 µM | 0.211 µM | 0.134 µM | 0.495 µM | 7.33 µM |  |  |  |  |  |  |  |  |  |  |
| CC(C)[C@H](O)C(=O)N[C@@H](C)C(=O)N[C@@H]1C(=O)N(C)CCc2ccccc21 | > 100 µM | > 100 µM | > 100 µM | > 100 µM | > 100 µM | > 100 µM | > 100 µM | > 100 µM | > 100 µM | > 100 µM | > 100 | > 100 µM | > 100 µM | > 100 µM | > 100 | > 100 | > 100 | > 100 | > 100 | > 100 |
| OC(c1cc(-c2ccc(C(F)(F)F)cc2)nc(C(F)(F)F)c1)C1CCCCN1 (centres undefined) | 3.02 µM and 3.51 µM | 4.3 µM and 11.6 µM | 2.99 µM and 3.27 µM | 3.12 µM and 4.75 µM | 3.37 µM and 6.33 µM | 3.13 µM and 3.07 µM | 2.81 µM and 17.7 µM | 3.59 µM and 3.69 µM | 2.82 µM and 6.07 µM | 3.1 µM and 4.89 µM |  | 1.96 µM and 4.22 µM | 1.63 µM and 1.86 µM | 1.72 µM and 2.39 µM | 1.72 |  | 1.48 | 2.02 |  | 1.47 |
| CCCC(=O)C1=C(O)C(Cc2c(O)c(C)c(O)c(C(=O)CCC)c2O)=C(O)C(C)(C)C1=O | > 50 µM | > 50 µM | > 50 µM |  | > 50 µM | > 50 µM | > 50 µM | > 50 µM | > 50 µM | > 50 µM |  |  |  |  |  |  |  |  |  |  |
| c1ccc2c(c1)[nH]c1c2cc[n+]2cc3c(cc12)CCCC3 | 4.97 µM | 32.4 µM | 3.22 µM and 5.83 µM | 11.7 µM and 6.7 µM | 10.9 µM and 29 µM | 5.05 µM and 6.75 µM | 36.2 µM and 32 µM | 6.83 µM and 25.6 µM | 13.9 µM and > 100 µM | 25 µM and 25.5 µM | 2.02 |  | 1.29 µM | 3 µM |  | 2.03 |  | 5.59 | 2.09 | 3.48 |
| O=C(NCc1ccc(Cn2c(=O)sn(-c3ccccc3)c2=O)cc1)OCc1ccc2cccc(O)c2n1 | 2.44 µM | 3.05 µM | 2.97 µM | 2.3 µM | 2.42 µM | 0.955 µM | 1.84 µM | 3.01 µM | 1.89 µM | 1.96 µM | 1.17 | 1.5 µM | 1.6 µM | 1.05 µM | 0.826 | 0.273 | 0.479 | 0.596 | 1.37 | 0.382 |
| CCC(C)(O)c1cnc(CC(C)C)c(=O)n1O (centres undefined) | > 100 µM | > 100 µM | > 100 µM |  | > 100 µM | > 100 µM | > 100 µM | > 100 µM | > 100 µM | > 100 µM |  |  |  |  |  |  |  |  |  |  |
| CCNC(=O)/C(=C/c1ccc(OC)cc1)c1cc(OC)c(OC)c(OC)c1 | > 100 µM | > 100 µM | > 53.9 µM | 45.9 µM | > 100 µM | > 100 µM | > 100 µM | > 100 µM | > 63.8 µM | > 100 µM |  |  |  |  |  |  |  |  |  |  |
| ClC(Cl)=C1C(=C(Cl)Cl)C(Cl)(Cl)C1(Cl)Cl | 5.36 µM | 16.6 µM | 9.98 µM | 6.08 µM | 5.08 µM | 0.579 µM and 1.86 µM | 8.14 µM | 12.9 µM | 26 µM | 18.9 µM |  |  |  |  |  |  |  |  |  |  |
| Nc1cc2c(cc1Br)[nH]c(=O)c1ccccc12 | 20.1 µM | 35.1 µM | 2.79 µM | 49.3 µM | > 100 µM | 6.23 µM | 53.4 µM | 17.1 µM | 29.8 µM | 23.1 µM | 6.02 | 4.18 µM | 1.46 µM | 15.1 µM | 4.14 | 1.8 | 5.39 | 3.61 | 4.13 | 3.91 |
| COC(=O)C1C(O)C(C(=O)OC)C(C)N(C)C1C (centres undefined) | > 100 µM | > 100 µM | > 100 µM | > 100 µM | > 100 µM | > 100 µM | > 100 µM | > 100 µM | > 100 µM | > 100 µM |  |  |  |  |  |  |  |  |  |  |
| CCc1ccc2c(c1)C(=O)c1c-2n(CCCN=[N+]=[N-])c(=O)c2cc([N+](=O)[O-])ccc12 | > 50 µM | > 50 µM | > 50 µM | > 50 µM | > 50 µM | > 50 µM | > 50 µM | > 50 µM | > 50 µM | > 50 µM | > 50 | > 50 µM | > 50 µM | > 50 µM | > 50 | > 50 | > 50 | > 50 | > 50 | > 50 |
